{
  "source": "patent US20190292189A1",
  "about": "“LIM KINASE INHIBITORS” (VIRONGY, LLC, priority 2016, published 2019)",
  "key": {"LRRK2 (G20195)": {"molecular_target": "T1, LRRK2 (G20195) (Homo sapiens, UniProt Q5S007, G2019S)", "T1 construct": "purchased Reaction Biology Corporation", "T1 sequence (Q5S007 970-2527 G2019S limits assumed)": "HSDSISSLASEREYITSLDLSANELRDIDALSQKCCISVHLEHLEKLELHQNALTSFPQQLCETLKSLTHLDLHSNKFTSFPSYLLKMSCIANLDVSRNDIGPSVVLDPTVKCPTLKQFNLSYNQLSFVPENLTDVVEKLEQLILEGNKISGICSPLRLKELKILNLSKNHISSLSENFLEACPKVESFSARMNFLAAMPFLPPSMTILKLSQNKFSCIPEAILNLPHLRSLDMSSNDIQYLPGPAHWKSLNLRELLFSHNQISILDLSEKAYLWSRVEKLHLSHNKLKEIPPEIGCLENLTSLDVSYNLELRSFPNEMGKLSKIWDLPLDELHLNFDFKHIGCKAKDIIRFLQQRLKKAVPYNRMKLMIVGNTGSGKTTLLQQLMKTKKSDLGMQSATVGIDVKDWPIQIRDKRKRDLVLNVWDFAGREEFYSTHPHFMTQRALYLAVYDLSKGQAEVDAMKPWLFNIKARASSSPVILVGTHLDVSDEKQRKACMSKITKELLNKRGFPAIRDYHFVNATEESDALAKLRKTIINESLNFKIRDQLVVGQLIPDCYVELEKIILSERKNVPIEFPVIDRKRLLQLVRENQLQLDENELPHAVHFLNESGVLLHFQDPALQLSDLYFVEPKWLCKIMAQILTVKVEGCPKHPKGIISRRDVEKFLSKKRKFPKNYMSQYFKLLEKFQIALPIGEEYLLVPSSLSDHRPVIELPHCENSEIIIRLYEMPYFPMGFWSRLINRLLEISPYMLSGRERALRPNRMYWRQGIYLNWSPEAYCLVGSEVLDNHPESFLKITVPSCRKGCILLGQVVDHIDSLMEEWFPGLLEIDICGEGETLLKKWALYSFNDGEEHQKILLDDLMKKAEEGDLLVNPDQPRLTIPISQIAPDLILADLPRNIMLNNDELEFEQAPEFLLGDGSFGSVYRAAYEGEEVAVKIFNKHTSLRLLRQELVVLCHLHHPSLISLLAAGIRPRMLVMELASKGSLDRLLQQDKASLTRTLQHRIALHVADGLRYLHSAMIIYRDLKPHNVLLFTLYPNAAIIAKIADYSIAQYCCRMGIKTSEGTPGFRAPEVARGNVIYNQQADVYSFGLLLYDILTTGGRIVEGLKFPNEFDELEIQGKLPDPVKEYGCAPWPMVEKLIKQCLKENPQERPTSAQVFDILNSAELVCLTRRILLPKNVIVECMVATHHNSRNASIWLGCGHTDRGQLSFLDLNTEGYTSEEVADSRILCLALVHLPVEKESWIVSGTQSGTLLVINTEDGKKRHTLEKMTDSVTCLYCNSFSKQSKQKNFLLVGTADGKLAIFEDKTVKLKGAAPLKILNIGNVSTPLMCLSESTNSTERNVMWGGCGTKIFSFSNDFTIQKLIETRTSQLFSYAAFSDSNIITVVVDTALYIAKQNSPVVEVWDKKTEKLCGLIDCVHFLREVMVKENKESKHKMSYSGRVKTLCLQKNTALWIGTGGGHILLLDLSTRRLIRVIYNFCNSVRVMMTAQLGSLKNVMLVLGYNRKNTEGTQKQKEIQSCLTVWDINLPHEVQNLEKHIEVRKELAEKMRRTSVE", "assay": "Kinase profiling at 1 μM (Reaction Biology)", "type": "biochemical", "description": "(§1) Profiling was carried out at Reaction Biology Corporation following a protocol described at its website: http://www.reactionbiology.com/webapps/site/. The % data were the average from two determinations. ATP concentration used: 10 μM; Staurosporine was used as the positive control.\n(§2) Biochemical assays for all Limk inhibitors and kinase profiling were carried out in Reaction Biology Corporation and followed the protocols described on its website. […] Compounds were tested at 1 μM with duplicate experiments in profiling assays. […] Reactions were carried out at 10 μM ATP, 1 μM substrate cofilin, and 50 nM Limk1 (final concentrations)."}, "HIV-1(NL4-3)": {"tested_on": "HIV-1(NL4-3)", "assay": "microbe, parasite or virus in culture", "type": "cell-based"}, "[1]": {"assay": "Plasma pharmacokinetics studies on rats", "conditions": "rats", "description": "In vivo pharmacokinetics (PK) studies were conducted for selected compounds during the whole optimization at various stages in order to identify structural elements that are favorable for in vivo applications, and/or to evaluate the feasibility of optimized Limk inhibitors for animal studies."}, "ROCK-II": {"molecular_target": "ROCK-II (Homo sapiens, UniProt O75116)", "assay": "ROCK-II biochemical counter-screen", "conditions": "read-out: ROCK-II IC50"}, "WEE1": {"molecular_target": "T2, WEE1 (Homo sapiens, UniProt P30291)", "T2 construct": "purchased Reaction Biology Corporation", "assay": "Kinase profiling at 1 μM (Reaction Biology)", "type": "biochemical", "conditions": "ATP 10 μM", "description": "as §1, §2"}, "RET": {"molecular_target": "T3, RET (Homo sapiens, UniProt P07949)", "T3 construct": "purchased Reaction Biology Corporation", "T3 sequence (P07949 29-1114)": "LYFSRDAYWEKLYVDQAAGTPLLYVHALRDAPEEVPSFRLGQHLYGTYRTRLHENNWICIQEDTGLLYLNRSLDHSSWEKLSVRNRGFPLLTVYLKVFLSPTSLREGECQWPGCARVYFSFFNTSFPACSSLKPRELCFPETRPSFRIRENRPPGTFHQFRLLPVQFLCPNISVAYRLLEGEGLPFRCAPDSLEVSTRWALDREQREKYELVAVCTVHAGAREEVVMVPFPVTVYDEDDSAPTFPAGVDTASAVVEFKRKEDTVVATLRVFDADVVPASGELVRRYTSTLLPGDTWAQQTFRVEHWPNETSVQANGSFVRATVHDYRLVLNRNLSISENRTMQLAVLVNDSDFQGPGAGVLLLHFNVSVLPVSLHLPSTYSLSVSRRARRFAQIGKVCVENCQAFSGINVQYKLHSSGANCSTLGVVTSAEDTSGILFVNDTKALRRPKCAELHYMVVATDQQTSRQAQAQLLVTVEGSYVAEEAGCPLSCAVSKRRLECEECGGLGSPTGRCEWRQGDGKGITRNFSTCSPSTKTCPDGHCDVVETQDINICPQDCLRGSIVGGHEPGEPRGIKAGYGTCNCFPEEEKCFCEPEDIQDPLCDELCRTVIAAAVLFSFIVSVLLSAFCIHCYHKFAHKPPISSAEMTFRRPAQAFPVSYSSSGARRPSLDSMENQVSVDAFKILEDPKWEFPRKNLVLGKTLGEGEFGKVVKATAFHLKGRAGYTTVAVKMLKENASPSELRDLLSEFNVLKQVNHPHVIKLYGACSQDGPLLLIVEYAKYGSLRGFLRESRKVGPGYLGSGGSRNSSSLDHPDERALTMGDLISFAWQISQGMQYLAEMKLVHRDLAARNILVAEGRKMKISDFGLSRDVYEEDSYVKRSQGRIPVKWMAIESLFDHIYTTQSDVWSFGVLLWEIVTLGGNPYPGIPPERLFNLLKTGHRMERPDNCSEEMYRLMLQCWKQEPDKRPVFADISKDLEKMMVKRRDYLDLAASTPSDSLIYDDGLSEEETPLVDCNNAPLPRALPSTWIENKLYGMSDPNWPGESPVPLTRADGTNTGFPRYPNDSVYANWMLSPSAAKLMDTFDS", "assay": "Kinase profiling at 1 μM (Reaction Biology)", "type": "biochemical", "conditions": "ATP 10 μM", "description": "as §1, §2"}, "CK1d": {"molecular_target": "T4, CK1d (Homo sapiens, UniProt P48730)", "T4 construct": "purchased Reaction Biology Corporation", "T4 sequence (P48730 whole entry)": "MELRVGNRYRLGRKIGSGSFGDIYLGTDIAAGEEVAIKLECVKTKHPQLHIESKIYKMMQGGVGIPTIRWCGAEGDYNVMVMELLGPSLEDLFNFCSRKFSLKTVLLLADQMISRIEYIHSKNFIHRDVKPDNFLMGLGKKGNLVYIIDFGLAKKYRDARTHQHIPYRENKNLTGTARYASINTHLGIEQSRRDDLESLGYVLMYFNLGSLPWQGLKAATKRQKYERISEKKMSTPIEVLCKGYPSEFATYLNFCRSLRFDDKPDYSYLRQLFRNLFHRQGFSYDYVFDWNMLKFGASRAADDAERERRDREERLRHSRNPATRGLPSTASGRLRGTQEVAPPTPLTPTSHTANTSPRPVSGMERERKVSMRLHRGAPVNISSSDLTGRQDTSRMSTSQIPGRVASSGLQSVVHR", "assay": "Kinase profiling at 1 μM (Reaction Biology)", "type": "biochemical", "conditions": "ATP 10 μM", "description": "as §1, §2"}, "AMPK(A1/B1/G1)": {"molecular_target": "T5, AMPK(A1/B1/G1) (Homo sapiens, UniProt Q13131)", "T5 construct": "purchased Reaction Biology Corporation", "assay": "Kinase profiling at 1 μM (Reaction Biology)", "type": "biochemical", "conditions": "ATP 10 μM", "description": "as §1, §2"}, "CDK5/p35": {"molecular_target": "T6, CDK5/p35 (Homo sapiens, UniProt Q00535)", "T6 construct": "purchased Reaction Biology Corporation", "assay": "Kinase profiling at 1 μM (Reaction Biology)", "type": "biochemical", "conditions": "ATP 10 μM", "description": "as §1, §2"}, "TAOK1": {"molecular_target": "T7, TAOK1 (Homo sapiens, UniProt Q7L7X3)", "T7 construct": "purchased Reaction Biology Corporation", "assay": "Kinase profiling at 1 μM (Reaction Biology)", "type": "biochemical", "conditions": "ATP 10 μM", "description": "as §1, §2"}, "CDK2/cyclin A": {"molecular_target": "T8, CDK2/cyclin A (Homo sapiens, UniProt P24941)", "T8 construct": "purchased Reaction Biology Corporation", "assay": "Kinase profiling at 1 μM (Reaction Biology)", "type": "biochemical", "conditions": "ATP 10 μM", "description": "as §1, §2"}, "SGK1": {"molecular_target": "T9, SGK1 (Homo sapiens, UniProt O00141)", "T9 construct": "purchased Reaction Biology Corporation", "assay": "Kinase profiling at 1 μM (Reaction Biology)", "type": "biochemical", "conditions": "ATP 10 μM", "description": "as §1, §2"}, "DAPK1": {"molecular_target": "T10, DAPK1 (Homo sapiens, UniProt P53355)", "T10 construct": "purchased Reaction Biology Corporation", "assay": "Kinase profiling at 1 μM (Reaction Biology)", "type": "biochemical", "conditions": "ATP 10 μM", "description": "as §1, §2"}, "c-5rc": {"molecular_target": "T11, c-5rc (Homo sapiens, UniProt P12931)", "T11 construct": "purchased Reaction Biology Corporation", "assay": "Kinase profiling at 1 μM (Reaction Biology)", "type": "biochemical", "conditions": "ATP 10 μM", "description": "as §1, §2"}, "STK33": {"molecular_target": "T12, STK33 (Homo sapiens, UniProt Q9BYT3)", "T12 construct": "purchased Reaction Biology Corporation", "T12 sequence (Q9BYT3 whole entry)": "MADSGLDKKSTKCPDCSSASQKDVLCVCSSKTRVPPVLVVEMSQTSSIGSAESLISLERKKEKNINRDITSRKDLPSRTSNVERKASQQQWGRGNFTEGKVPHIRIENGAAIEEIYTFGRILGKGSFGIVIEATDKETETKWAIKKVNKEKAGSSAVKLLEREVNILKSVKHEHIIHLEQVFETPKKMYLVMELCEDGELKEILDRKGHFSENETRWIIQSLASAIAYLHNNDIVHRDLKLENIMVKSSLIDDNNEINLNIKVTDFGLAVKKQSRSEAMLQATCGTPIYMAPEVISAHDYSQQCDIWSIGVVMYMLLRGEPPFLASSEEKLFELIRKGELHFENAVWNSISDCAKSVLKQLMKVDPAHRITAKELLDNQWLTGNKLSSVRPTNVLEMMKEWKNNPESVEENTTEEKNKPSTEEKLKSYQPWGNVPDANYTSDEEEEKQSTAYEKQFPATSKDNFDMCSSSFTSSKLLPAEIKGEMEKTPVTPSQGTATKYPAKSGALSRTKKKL", "assay": "Kinase profiling at 1 μM (Reaction Biology)", "type": "biochemical", "conditions": "ATP 10 μM", "description": "as §1, §2"}, "SLK/STK2": {"molecular_target": "T13, SLK/STK2 (Homo sapiens, UniProt Q9H2G2)", "T13 construct": "purchased Reaction Biology Corporation", "assay": "Kinase profiling at 1 μM (Reaction Biology)", "type": "biochemical", "conditions": "ATP 10 μM", "description": "as §1, §2"}, "c-MET": {"molecular_target": "T14, c-MET (Homo sapiens, UniProt P08581)", "T14 construct": "purchased Reaction Biology Corporation", "assay": "Kinase profiling at 1 μM (Reaction Biology)", "type": "biochemical", "conditions": "ATP 10 μM", "description": "as §1, §2"}, "mTOR/FRAP1": {"molecular_target": "T15, mTOR/FRAP1 (Homo sapiens, UniProt P42345)", "T15 construct": "purchased Reaction Biology Corporation", "assay": "Kinase profiling at 1 μM (Reaction Biology)", "type": "biochemical", "conditions": "ATP 10 μM", "description": "as §1, §2"}, "AKT2": {"molecular_target": "T16, AKT2 (Homo sapiens, UniProt P31751)", "T16 construct": "purchased Reaction Biology Corporation", "T16 sequence (P31751 whole entry)": "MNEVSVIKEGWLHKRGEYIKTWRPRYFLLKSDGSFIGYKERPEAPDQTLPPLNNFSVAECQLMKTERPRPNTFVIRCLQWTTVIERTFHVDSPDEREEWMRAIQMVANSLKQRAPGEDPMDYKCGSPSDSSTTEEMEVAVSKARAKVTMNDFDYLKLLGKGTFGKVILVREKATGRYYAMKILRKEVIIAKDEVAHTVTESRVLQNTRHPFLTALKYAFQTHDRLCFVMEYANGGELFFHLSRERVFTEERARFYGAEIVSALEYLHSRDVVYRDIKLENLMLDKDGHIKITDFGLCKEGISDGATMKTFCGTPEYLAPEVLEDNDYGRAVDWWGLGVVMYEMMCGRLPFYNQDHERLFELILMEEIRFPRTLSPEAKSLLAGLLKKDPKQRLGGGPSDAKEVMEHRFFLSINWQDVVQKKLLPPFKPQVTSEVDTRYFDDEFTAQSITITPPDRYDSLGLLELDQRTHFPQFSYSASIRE", "assay": "Kinase profiling at 1 μM (Reaction Biology)", "type": "biochemical", "conditions": "ATP 10 μM", "description": "as §1, §2"}, "TBK1": {"molecular_target": "T17, TBK1 (Homo sapiens, UniProt Q9UHD2)", "T17 construct": "purchased Reaction Biology Corporation", "assay": "Kinase profiling at 1 μM (Reaction Biology)", "type": "biochemical", "conditions": "ATP 10 μM", "description": "as §1, §2"}, "CAMK2b": {"molecular_target": "T18, CAMK2b (Homo sapiens, UniProt Q13554)", "T18 construct": "purchased Reaction Biology Corporation", "T18 sequence (Q13554 whole entry)": "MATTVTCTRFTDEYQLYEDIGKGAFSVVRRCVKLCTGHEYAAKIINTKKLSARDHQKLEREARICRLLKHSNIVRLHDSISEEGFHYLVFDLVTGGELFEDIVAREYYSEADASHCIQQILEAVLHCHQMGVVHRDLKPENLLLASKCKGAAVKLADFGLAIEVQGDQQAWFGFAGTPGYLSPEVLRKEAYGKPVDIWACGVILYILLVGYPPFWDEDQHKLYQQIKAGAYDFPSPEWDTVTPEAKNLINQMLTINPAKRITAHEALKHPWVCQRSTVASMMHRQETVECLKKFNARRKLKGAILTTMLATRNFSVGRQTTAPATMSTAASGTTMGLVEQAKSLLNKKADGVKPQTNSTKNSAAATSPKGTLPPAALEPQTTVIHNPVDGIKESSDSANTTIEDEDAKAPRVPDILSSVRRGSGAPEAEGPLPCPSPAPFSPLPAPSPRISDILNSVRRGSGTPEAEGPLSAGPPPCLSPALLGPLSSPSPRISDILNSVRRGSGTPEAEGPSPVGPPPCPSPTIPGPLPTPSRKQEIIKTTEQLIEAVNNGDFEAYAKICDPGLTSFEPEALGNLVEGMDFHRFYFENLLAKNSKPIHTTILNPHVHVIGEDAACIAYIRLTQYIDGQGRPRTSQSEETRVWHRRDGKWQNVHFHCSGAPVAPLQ", "assay": "Kinase profiling at 1 μM (Reaction Biology)", "type": "biochemical", "conditions": "ATP 10 μM", "description": "as §1, §2"}, "HIV-1(VSVG)": {"tested_on": "HIV-1(VSVG)", "type": "cell-based"}, "[2]": {"tested_on": "phosphorylation of PAK1/2", "assay": "Western blot of PAK1/2 phosphorylation in CEM-SS T cells", "type": "cell-based, human", "description": "FIG. 10. Chemical and Biochemical characterization of R10015. a, Chemical structure of R10015 and its docking into the crystal structure of LIMK1 (PDB ID 3S95, Chain A). […] CEM-SS T cells treated with R10015 (100 μM) for a time course, and the phosphorylation of cofilin, LIMK, and PAK1/2 were measured by Western Blot. Levels of each protein or GAPDH were also measured for loading control. d, R10015 inhibits Jurkat T cell chemotaxis in responding to SDF-1. e, R10015. f, R10015 inhibits chemotactic actin activity. Resting CD4 T cells were treated with R10015, and then exposed to SDF-1 for a time course. Actin polymerization were measured by FITC-phalloidin staining. g, the relative intensity of F-actin staining was also plotted.\nOne million cells were lysed in NuPAGE LDS Sample Buffer (Invitrogen), separated by SDS-PAGE, and then transferred onto nitrocellulose membranes (Invitrogen). The membranes were washed in TBST for 3 min and then blocked for 30 min at room temperature with Starting Block blocking buffer (Pierce). For probing with different antibodies, blots were incubated with rabbit anti-LIMK1 antibodies (Cell Signaling), with rabbit anti-p-coflin antibodies (Cell Signaling) or with a mouse anti-PAK1/2 antibody (Cell Signaling). These antibodies were diluted in 2.5% milk/TBST and rocked overnight at 4° C. […]"}, "Limk1": {"molecular_target": "Limk1 (Homo sapiens, UniProt P53667)", "sequence (P53667 285-638)": "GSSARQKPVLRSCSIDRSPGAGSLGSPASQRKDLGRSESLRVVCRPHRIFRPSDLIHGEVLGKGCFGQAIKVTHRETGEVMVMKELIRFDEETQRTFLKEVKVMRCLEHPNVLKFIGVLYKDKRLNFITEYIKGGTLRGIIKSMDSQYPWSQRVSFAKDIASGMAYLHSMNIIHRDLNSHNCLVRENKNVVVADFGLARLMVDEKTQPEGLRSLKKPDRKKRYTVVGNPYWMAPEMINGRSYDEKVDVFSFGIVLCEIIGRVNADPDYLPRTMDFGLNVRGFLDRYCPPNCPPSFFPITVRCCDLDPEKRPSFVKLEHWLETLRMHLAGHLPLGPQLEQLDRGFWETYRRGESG", "assay": "Limk1 biochemical assay (Reaction Biology, 10-dose IC50)", "design": "His; purchased Reaction Biology Corporation; host or cells: insect cells"}, "[3]": {"tested_on": "VEEV (venezuelan equine encephalitis virus)", "type": "cell-based", "conditions": "Vero cells"}},
  "note": "Like-named read-outs stand apart in the source and are kept apart here.",
  "data": [
    {"smiles": "Cc1c[nH]c2ncnc(-c3ccc(NC(=O)N(CCO)c4ccccc4)cc3)c12", "note": "[Compound 18b, 1-(2-Hydroxyethyl)-3-(4-(5-methyl-7H-pyrrolo[2,3-d]pyrimidin-4-yl)phenyl)-1-phenylurea]", "values": [
      {"measurement": "inhibition at 1 µM", "setting": "LRRK2 (G20195); kinase panel", "value": "> 50", "unit": "%"},
      {"measurement": "X4 HIV infection (screen)", "setting": "HIV-1(NL4-3)", "value": "blocked"},
      {"measurement": "AUC (iv)", "setting": "[1]; iv dosing 1 mg/kg", "value": 8.4, "unit": "µM·h"},
      {"measurement": "Cl (iv)", "setting": "[1]; iv dosing 1 mg/kg", "value": 5.2, "unit": "mL/min/kg"},
      {"measurement": "T1/2 (iv)", "setting": "[1]; iv dosing 1 mg/kg", "value": 2.2, "unit": "h"},
      {"measurement": "Yd (iv)", "setting": "[1]; iv dosing 1 mg/kg", "value": 0.4, "unit": "L/kg"},
      {"measurement": "F (%) (po)", "setting": "[1]; po dosing 2 mg/kg", "value": 36, "unit": "%"},
      {"measurement": "Cmax", "setting": "[1]; read-out: Cmax (iv), iv dosing 1 mg/kg", "value": 7.7, "unit": "µM"},
      {"measurement": "IC50", "setting": "ROCK-II", "value": 6.57, "unit": "µM"}
    ]},
    {"smiles": "COC(=O)c1ccc2[nH]c(C3CCN(c4ncnc5[nH]cc(Cl)c45)CC3)nc2c1", "note": "[Compound R10015, Methyl 2-(1-(5-chloro-7H-pyrrolo[2,3-d]pyrimidin-4-yl)piperidin-4-yl)-1Hbenzo[d]imidazole-5-carboxylate]", "values": [
      {"measurement": "activity at 1 µM", "setting": "WEE1", "value": 97.2, "unit": "%"},
      {"measurement": "activity at 1 µM", "setting": "RET", "value": 46.5, "unit": "%"},
      {"measurement": "activity at 1 µM", "setting": "CK1d", "value": 85, "unit": "%"},
      {"measurement": "activity at 1 µM", "setting": "AMPK(A1/B1/G1)", "value": 76.6, "unit": "%"},
      {"measurement": "activity at 1 µM", "setting": "LRRK2 (G20195); ATP 10 μM", "value": 6.7, "unit": "%"},
      {"measurement": "activity at 1 µM", "setting": "CDK5/p35", "value": 85.5, "unit": "%"},
      {"measurement": "activity at 1 µM", "setting": "TAOK1", "value": 54, "unit": "%"},
      {"measurement": "activity at 1 µM", "setting": "CDK2/cyclin A", "value": 82.7, "unit": "%"},
      {"measurement": "activity at 1 µM", "setting": "SGK1", "value": 61, "unit": "%"},
      {"measurement": "activity at 1 µM", "setting": "DAPK1", "value": 87.8, "unit": "%"},
      {"measurement": "activity at 1 µM", "setting": "c-5rc", "value": 92.4, "unit": "%"},
      {"measurement": "activity at 1 µM", "setting": "STK33", "value": 56.5, "unit": "%"},
      {"measurement": "activity at 1 µM", "setting": "SLK/STK2", "value": 108, "unit": "%"},
      {"measurement": "activity at 1 µM", "setting": "c-MET", "value": 82.1, "unit": "%"},
      {"measurement": "activity at 1 µM", "setting": "mTOR/FRAP1", "value": 100, "unit": "%"},
      {"measurement": "activity at 1 µM", "setting": "AKT2", "value": 73.1, "unit": "%"},
      {"measurement": "activity at 1 µM", "setting": "TBK1", "value": 82, "unit": "%"},
      {"measurement": "activity at 1 µM", "setting": "CAMK2b", "value": 90.8, "unit": "%"},
      {"measurement": "inhibition of VSVG pseudotyped HIV", "setting": "HIV-1(VSVG)", "value": "did not inhibit"},
      {"measurement": "phosphorylation of PAK1/2", "setting": "[2]", "value": "not inhibited"},
      {"measurement": "IC50", "setting": "Limk1; Table 8, read-out: LIMK1 IC50", "value": "0.038 ± 0.005", "unit": "µM"},
      {"measurement": "IC50", "setting": "Limk1; read-out: Limk1 IC50", "value": "~0.038", "unit": "µM"},
      {"measurement": "IC50", "setting": "HIV-1(NL4-3); Human immunodeficiency virus 1, NL43, T-cell, read-out: half maximal inhibition concentration (IC50) for inhibiting HIV infection", "value": 14.9, "unit": "µM"},
      {"measurement": "X4 HIV infection (screen)", "setting": "HIV-1(NL4-3); […], dosages with no detectable cytotoxicity", "value": "blocked"},
      {"measurement": "VEEV infection", "setting": "[3]", "value": "inhibited"}
    ]}
  ]
}
